Laboratory results from US5171835A, “LHRH antagonists” (The Administrators of the Tulane Educational Fund, priority 1991, dated 1992).

What was measured:
[1] = tested on: ovulation in 4-day-cycling rats; experiment: In vivo antiovulatory activity in 4-day-cycling rats; set-up: species or system rat
Method: (b) In vivo antiovulatory activity of peptides is determined in 4-day-cycling rats as described [A. Corbin and C. W. Beattie, Endocr. Res. Commun., 2, 1-23 (1975)].

[2] = tested on: perfused rat pituitary cell system (LH response to LH-RH); experiment: LH-RH inhibiting activity in superfused rat pituitary cell system; assay type: cell-based
Method: Immediately after that, a mixture containing the same concentration of peptide and 3 nM LHRH is administered for 3 min. This was followed by four consecutive infusions of 3 nM LHRH for 3 min (1 ml perfusate) at 30 min intervals (30, 60, 90, 120 min). LH content of the 1 ml fractions collected is determined by radioimmunoassay (RIA).

[3] = tested on: membrane receptors of human breast cancer cells; experiment: Receptor binding, human breast cancer cell membranes (125I-[D-Trp6]LHRH as labelled ligand); conditions: 125I-[D-Trp]6 LHRH labelled ligand; for Affinity Constant Ka 1: NB = no binding
Method: Affinity of peptides to rat pituitary and human breast cancer cell membranes is determined by using labelled LHRH and [D-Trp^6 ]LHRH. The assay is carried out similarly to that described by T. Kadar et al., Proc. Natl. Acad. Sci. USA, 85, 890-894 (1988) and M. Fekete et al., Endocrinology, 124, 946-955 (1989).

LH and FSH levels = experiment: In vivo effect on LH and FSH levels in castrated male rats; set-up: species or system rat; conditions: s.c.
Method: (d) In vivo effect on LH and FSH levels was measured as described by L. Bokser et al. (Proc. Natl. Acad. Sci. US, accepted for publication.) Castrated male rats weighing 350-410 grams anaesthetized with urethane were injected subcutaneously with Peptide 7 and 8 in doses of 1.25 μg and 5.0 μg. Blood samples were taken from the jugular vein before injection and 1, 2, 3, 4, 6, 24 and 48 hours after the administration of peptides. Control animals were injected only with saline. LH and FSH levels were determined by specific RIAs.

[4] = antagonist to LH-RH ratio 1:1, 0 min
[5] = antagonist to LH-RH ratio 1:1, 30 min
[6] = antagonist to LH-RH ratio 1:1, 60 min
[7] = antagonist to LH-RH ratio 1:1, 90 min
[8] = antagonist to LH-RH ratio 3:1, 0 min
[9] = antagonist to LH-RH ratio 3:1, 30 min
[10] = antagonist to LH-RH ratio 3:1, 60 min
[11] = antagonist to LH-RH ratio 3:1, 90 min

Substance | % Blockade of Ovulation ([1]; dose 1.5 μg) | % inhibition of LH response [2, 4] | % inhibition of LH response [2, 5] | % inhibition of LH response [2, 6] | % inhibition of LH response [2, 7] | % inhibition of LH response [2, 8] | % inhibition of LH response [2, 9] | % inhibition of LH response [2, 10] | % inhibition of LH response [2, 11] | Affinity Constant Ka 2 [3] | Affinity Constant Ka 1 [3] | % Blockade of Ovulation ([1]; dose is 0.375 μg) | inhibition of LH levels forty-eight hours after injection (LH and FSH levels; dose of 5 μg, 48 hours, p<0.05) | duration of significant decrease in the LH levels (LH and FSH levels; p<0.01) | % Blockade of Ovulation ([1]; dose 0.75 μg)
Ac-D-Nal(2)-D-Phe(4Cl)-D-Trp-Ser-Arg-D-Lys[A2 pr(For)2 ]-Leu-Arg-Pro-D-Ala-NH2 [Peptide 24] | 50% | 36% | 11% | 0% | 9% | 58% | 5% | 18% | 27% |  |  |  |  |  | 
Ac-D-Nal(2)-D-Phe(4Cl)-D-Pal(3)-Ser-Arg-D-Lys[A2 pr(Car)2 ]-Leu-Arg-Pro-D-Ala-NH2 [Peptide 1] |  | 80% | 46% | 31% |  | 95% | 59% | 55% | 52% | 3.15 µM⁻¹ | 7.07 nM⁻¹ |  |  |  | 
Ac-D-Nal(2)-D-Phe(4Cl)-D-Pal(3)-Ser-Tyr-D-Lys[DL-A2 bu(For)2 ]-Leu-Arg-Pro-D-Ala-NH2 [Peptide 15] | 100% | 44% | 41% | 22% | 23% | 99% | 60% | 34% | 21% |  |  | 25% |  |  | 
Ac-D-Nal(2)-D-Phe(4Cl)-D-Pal(3)-Ser-Tyr-D-Lys[A2 pr(Car)2 ]-Leu-Arg-Pro-D-Ala-NH2 [Peptide 7] |  | 57% | 51% | 45% | 41% | 96% | 78% | 70% | 58% | 5.72 µM⁻¹ | 6.27 nM⁻¹ |  | significant inhibition | more than 24 hours | 
Ac-D-Nal(2)-D-Phe(4Cl)-D-Pal(3)-Ser-Tyr-D-Lys[DL-A2 bu]-Leu-Arg-Pro-D-Ala-NH2 [Peptide 26] |  | 70% | 52% | 37% |  | 90% | 75% | 62% | 57% |  |  |  |  |  | 
Ac-D-Nal(2)-D-Phe(4Cl)-D-Trp-Ser-Arg-D-Lys[A2 pr(Ac)2 ]-Leu-Arg-Pro-D-Ala-NH2 [Peptide 23] |  |  |  |  |  | 52% | 22% | 21% | 22% | 0.14 µM⁻¹ | 6.87 nM⁻¹ |  |  |  | 
Ac-D-Nal(2)-D-Phe(4Cl)-D-Pal(3)-Ser-Arg-D-Lys[A2 pr(Ac)2 ]-Leu-Arg-Pro-D-Ala-NH2 [Peptide 2] |  | 26% | 27% | 29% | 25% | 88% | 41% | 13% |  | 0.32 µM⁻¹ | 16.35 nM⁻¹ |  |  |  | 
Ac-D-Nal(2)-D-Phe(4Cl)-D-Pal(3)-Ser-Tyr-D-Lys[A2 pr]-Leu-Arg-Pro-D-Ala-NH2 [Peptide 25] |  | 57% | 49% | 43% |  | 85% | 69% | 62% | 57% | 1.29 µM⁻¹ | 3.49 nM⁻¹ |  |  |  | 
Ac-D-Nal(2)-D-Phe(4Cl)-D-Pal(3)-Ser-Tyr-D-Lys[A2 pr(EtCar)2 ]-Leu-Arg-Pro-D-Ala-NH2 [Peptide 9] | 50% |  |  |  |  | 90% | 72% |  |  | 8.57 µM⁻¹ | 30.92 nM⁻¹ |  |  |  | 20%
Ac-D-Nal(2)-D-Phe(4Cl)-D-Pal(3)-Ser-Tyr-D-Lys[DL-A2 bu(Ac)2 ]-Leu-Arg-Pro-D-Ala-NH2 [Peptide 14] | 20% |  |  |  |  | 80% | 63% | 51% | 53% | 0.28 µM⁻¹ | 4.83 nM⁻¹ |  |  |  | 
Ac-D-Nal(2)-D-Phe(4Cl)-D-Pal(3)-Ser-Tyr-D-Lys[DL-A2 bu(PRL)2 ]-Leu-Arg-Pro-D-Ala-NH2 [Peptide 18] |  |  |  |  |  | 90% | 71% | 58% | 54% | 6.17 µM⁻¹ | 21.18 nM⁻¹ |  |  |  | 75%
Ac-D-Nal(2)-D-Phe(4Cl)-D-Pal(3)-Ser-Tyr-D-Lys[A2 pr(CHC)2 ]-Leu-Arg-Pro-D-Ala-NH2 [Peptide 12] |  |  |  |  |  |  |  |  |  | 3.57 µM⁻¹ | 1.68 nM⁻¹ |  |  |  | 
Ac-D-Nal(2)-D-Phe(4Cl)-D-Trp-Ser-Arg-D-Lys[A2 pr(Car)2 ]-Leu-Arg-Pro-D-Ala-NH2 [Peptide 22] |  |  |  |  |  | 64% | 22% | 24% |  | 2.67 µM⁻¹ | 4.09 nM⁻¹ |  |  |  | 
Ac-D-Nal(2)-D-Phe(4Cl)-D-Pal(3)-Ser-Tyr-D-Lys[DL-A2 bu(LAU)2 ]-Leu-Arg-Pro-D-Ala-NH2 [Peptide 19] |  | 20% | 20% | 0% | 0% |  |  |  |  | 0 µM⁻¹ | 0 nM⁻¹ |  |  |  | 
Ac-D-Nal(2)-D-Phe(4Cl)-D-Pal(3)-Ser-Arg-D-Lys[A2 pr(EtCar)2 ]-Leu-Arg-Pro-D-Ala-NH2 [Peptide 4] |  |  |  |  |  | 91% | 50% | 42% | 41% | 0.05 µM⁻¹ | 9.71 nM⁻¹ |  |  |  | 
Ac-D-Nal(2)-D-Phe(4Cl)-D-Pal(3)-Ser-Tyr-D-Lys[A2 pr(For)2 ]-Leu-Arg-Pro-D-Ala-NH2 [Peptide 10] | 100% |  |  |  |  |  |  |  |  | 2.11 µM⁻¹ | 48.29 nM⁻¹ |  |  |  | 67%
Ac-D-Nal(2)-D-Phe(4Cl)-D-Pal(3)-Ser-Tyr-D-Lys[DL-A2 bu(Car)2 ]-Leu-Arg-Pro-D-Ala-NH2 [Peptide 16] | 33% | 52% | 33% | 24% | 28% |  |  |  |  |  |  |  |  |  | 
Ac-D-Nal(2)-D-Phe(4Cl)-D-Pal(3)-Ser-Arg-D-Lys[A2 pr(For)2 ]-Leu-Arg-Pro-D-Ala-NH2 [Peptide 3] |  |  |  |  |  | 93% | 43% | 26% | 24% |  |  |  |  |  | 
